Test results reported in patent US20250206732A1, “COMPOUNDS AND METHODS FOR THE TARGETED DEGRADATION OF KRAS” (Arvinas Operations, Inc., priority 2022, published 2025).

Target: T1, AsPC-1 HiBiT-KRASG12D (Homo sapiens, UniProt P01116, G12D)
T1 construct: insert the HiBiT tag onto the N-terminus of one or more of the endogenous KRAS alleles; endogenous in cells; host or cells: AsPC-1 (ATCC CRL-1682), CRISPR-Cas9 knock-in clone, one tagged allele
Experiment: HiBiT degradation assay (G12D), AsPC-1 HiBiT-KRASG12D cells
Type: cell-based
Details: 24 hours treatment; for Dmax: ASPC1, AsPC-1 HiBiT-KRASG12D cells, maximum degradation observed; for DC50: AsPC-1 HiBiT-KRASG12D cells, HiBiT luminescence
In short: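 24 h cmpd treatment, 37° C/5% CO2, AsPC-1 HiBiT-KRASG12D clone (CRISPR N-term tag). Alamar blue 1×, 4 h, fluorescence. PBS wash, Nano-Glo HiBiT lytic reagent, 45 min RT, luminescence. Triplicates.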

T1 sequence (P01116 1-188 isoform P01116-2 G12D): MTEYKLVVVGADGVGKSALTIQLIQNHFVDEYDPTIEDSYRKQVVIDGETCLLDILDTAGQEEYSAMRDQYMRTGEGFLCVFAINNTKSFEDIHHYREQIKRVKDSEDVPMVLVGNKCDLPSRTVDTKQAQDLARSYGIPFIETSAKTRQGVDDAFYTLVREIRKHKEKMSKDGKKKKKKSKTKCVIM

Row | SMILES | Dmax | DC50
1 | CCc1cccc2cc(O)cc(-c3ncc4c(N5CC6CCC(C5)N6)nc(OC[C@@]56CCCN5[C@H](COC(=O)N5CCN(c7cc([C@H](C(=O)N8C[C@H](O)C[C@H]8C(=O)N[C@@H](C)c8ccc(-c9scnc9C)cc8)C(C)C)on7)[C@H](C)C5)CC6)nc4c3F)c12 [Compound 327, [(3S,8S)-8-[[4-(3,8-diazabicyclo[3.2.1]octan-3-yl)-7-(8-ethyl-3-hydroxy-1-naphthyl)-8-fluoro-pyrido[4,3-d]pyrimidin-2-yl]oxymethyl]-1,2,3,5,6,7-hexahydropyrrolizin-3-yl]methyl (3R)-4-[5-[(1R)-1-[(2S,4R)-4-hydroxy-2-[[(1S)-1-[4-(4-methylthiazol-5-yl)phenyl]ethyl]carbamoyl]pyrrolidine-1-carbonyl]-isobutyl]isoxazol-3-yl]-3-methyl-piperazine-1-carboxylate] | 80 to 100% | < 600 nM
2 | CCc1cccc2cc(O)cc(-c3ncc4c(N5CC6CCC(C5)N6)nc(OCCN5CCC(COCC(=O)N[C@H](C(=O)N6C[C@H](O)C[C@H]6C(=O)N[C@@H](C)c6ccc(-c7scnc7C)c(Cl)c6)C(C)(C)C)CC5)nc4c3F)c12 [Compound 332, (2S,4R)—N-[(1S)-1-[3-chloro-4-(4-methyl-1,3-thiazol-5-yl)phenyl]ethyl]-1-[(2S)-2-{2-[(1-{2-[(4-{3,8-diazabicyclo[3.2.1]octan-3-yl}-7-(8-ethyl-3-hydroxynaphthalen-1-yl)-8-fluoropyrido[4,3-d]pyrimidin-2-yl)oxy]ethyl}piperidin-4-yl)methoxy]acetamido}-3,3-dimethylbutanoyl]-4-hydroxypyrrolidine-2-carboxamide] | 80 to 100% | 600 to 1000 nM
3 | CCc1cccc2cc(O)cc(-c3ncc4c(N5CC6CCC(C5)N6)nc(OC[C@@]56CCCN5[C@H](CN5CCC(F)(COc7cc([C@H](C(=O)N8C[C@H](O)C[C@H]8C(=O)N[C@@H](C)c8ccc(-c9scnc9C)cc8)C(C)C)on7)CC5)CC6)nc4c3F)c12 [Compound 335, (2S,4R)-1-[(2R)-2-[3-[[1-[[(3S,8S)-8-[[4-(3,8-diazabicyclo[3.2.1]octan-3-yl)-7-(8-ethyl-3-hydroxy-1-naphthyl)-8-fluoro-pyrido[4,3-d]pyrimidin-2-yl]oxymethyl]-1,2,3,5,6,7-hexahydropyrrolizin-3-yl]methyl]-4-fluoro-4-piperidyl]methoxy]isoxazol-5-yl]-3-methyl-butanoyl]-4-hydroxy-N-[(1S)-1-[4-(4-methylthiazol-5-yl)phenyl]ethyl]pyrrolidine-2-carboxamide] | 80 to 100% | < 600 nM
4 | CCc1cccc2cc(O)cc(-c3ncc4c(N5CC6CCC(C5)N6)nc(OC[C@@]56CCCN5[C@H](CN5CCC(F)(COc7cc([C@@H](C(=O)N8C[C@H](O)C[C@H]8C(=O)N[C@@H](C)c8ccc(-c9scnc9C)cc8)C(C)C)on7)CC5)CC6)nc4c3F)c12 [Compound 336, (2S,4R)-1-[(2S)-2-[3-[[1-[[(3S,8S)-8-[[4-(3,8-diazabicyclo[3.2.1]octan-3-yl)-7-(8-ethyl-3-hydroxy-1-naphthyl)-8-fluoro-pyrido[4,3-d]pyrimidin-2-yl]oxymethyl]-1,2,3,5,6,7-hexahydropyrrolizin-3-yl]methyl]-4-fluoro-4-piperidyl]methoxy]isoxazol-5-yl]-3-methyl-butanoyl]-4-hydroxy-N-[(1S)-1-[4-(4-methylthiazol-5-yl)phenyl]ethyl]pyrrolidine-2-carboxamide] | 20 to 60% | 1000 to 3000 nM
5 | CCc1cccc2cc(O)cc(-c3ncc4c(N5CC6CCC(C5)N6)nc(OCCN5CCC(F)(COc6cc([C@H](C(=O)N7C[C@H](O)C[C@H]7C(=O)N[C@@H](C)c7ccc(-c8scnc8C)cc7)C(C)C)on6)CC5)nc4c3F)c12 [Compound 337, (2S,4R)-1-[(2R)-2-{3-[(1-{2-[(4-{3,8-diazabicyclo[3.2.1]octan-3-yl}-7-(8-ethyl-3-hydroxynaphthalen-1-yl)-8-fluoropyrido[4,3-d]pyrimidin-2-yl)oxy]ethyl}-4-fluoropiperidin-4-yl)methoxy]-1,2-oxazol-5-yl}-3-methylbutanoyl]-4-hydroxy-N-[(1S)-1-[4-(4-methyl-1,3-thiazol-5-yl)phenyl]ethyl]pyrrolidine-2-carboxamide] | 80 to 100% | < 600 nM
6 | CCc1cccc2cc(O)cc(-c3ncc4c(N5CC6CCC(C5)N6)nc(OC[C@]56CCCN5[C@H](COC(=O)N5CC7(C5)CN(c5cc([C@H](C(=O)N8C[C@H](O)C[C@H]8C(=O)N[C@@H](C)c8ccc(-c9scnc9C)cc8)C(C)C)on5)C7)CC6)nc4c3F)c12 [Compound 340, [(3S,8R)-8-[[4-(3,8-diazabicyclo[3.2.1]octan-3-yl)-7-(8-ethyl-3-hydroxy-1-naphthyl)-8-fluoro-pyrido[4,3-d]pyrimidin-2-yl]oxymethyl]-1,2,3,5,6,7-hexahydropyrrolizin-3-yl]methyl 6-[5-[(1S)-1-[(2S,4R)-4-hydroxy-2-[[(1S)-1-[4-(4-methylthiazol-5-yl)phenyl]ethyl]carbamoyl]pyrrolidine-1-carbonyl]-isobutyl]isoxazol-3-yl]-2,6-diazaspiro[3.3]heptane-2-carboxylate] | 80 to 100% | < 600 nM
7 | CCc1cccc2cc(O)cc(-c3ncc4c(N5CC6CCC(C5)N6)nc(OC[C@@]56CCCN5[C@H](COC(=O)N5CCN(c7cc([C@@H](C(=O)N8C[C@H](O)C[C@H]8C(=O)N[C@@H](C)c8ccc(-c9scnc9C)cc8)C(C)C)on7)[C@H](C)C5)CC6)nc4c3F)c12 [Compound 341, [(3S,8S)-8-[[4-(3,8-diazabicyclo[3.2.1]octan-3-yl)-7-(8-ethyl-3-hydroxy-1-naphthyl)-8-fluoro-pyrido[4,3-d]pyrimidin-2-yl]oxymethyl]-1,2,3,5,6,7-hexahydropyrrolizin-3-yl]methyl (3R)-4-[5-[(1S)-1-[(2S,4R)-4-hydroxy-2-[[(1S)-1-[4-(4-methylthiazol-5-yl)phenyl]ethyl]carbamoyl]pyrrolidine-1-carbonyl]-isobutyl]isoxazol-3-yl]-3-methyl-piperazine-1-carboxylate] |  | > 3000 nM
8 | CCc1cccc2cc(O)cc(-c3ncc4c(N5CC6CCC(C5)N6)nc(OC[C@@H]5CC[C@]6(COC(=O)N7CCN(c8cc([C@H](C(=O)N9C[C@H](O)C[C@H]9C(=O)N[C@@H](C)c9ccc(-c%10scnc%10C)cc9)C(C)C)on8)CC7)CCCN56)nc4c3F)c12 [Compound 342, [(3S,8S)-3-[[4-(3,8-diazabicyclo[3.2.1]octan-3-yl)-7-(8-ethyl-3-hydroxy-1-naphthyl)-8-fluoro-pyrido[4,3-d]pyrimidin-2-yl]oxymethyl]-1,2,3,5,6,7-hexahydropyrrolizin-8-yl]methyl 4-[5-[(1R)-1-[(2S,4R)-4-hydroxy-2-[[(1S)-1-[4-(4-methylthiazol-5-yl)phenyl]ethyl]carbamoyl]pyrrolidine-1-carbonyl]-isobutyl]isoxazol-3-yl]piperazine-1-carboxylate] | 80 to 100% | < 600 nM
